According to patent publication US5523315A, “N-(hydroxyethyl)butanediamide derivatives” (Bio-Mega/Boehringer Ingelheim Research Inc., priority 1993, dated 1996):

Target: T1, human renin (Homo sapiens, UniProt P00797)
T1 construct: A human plasma pool is used as the source of both the substrate (angiotensinogen) and the enzyme (renin); from tissue; host or cells: pooled human plasma
T1 sequence (P00797 67-406): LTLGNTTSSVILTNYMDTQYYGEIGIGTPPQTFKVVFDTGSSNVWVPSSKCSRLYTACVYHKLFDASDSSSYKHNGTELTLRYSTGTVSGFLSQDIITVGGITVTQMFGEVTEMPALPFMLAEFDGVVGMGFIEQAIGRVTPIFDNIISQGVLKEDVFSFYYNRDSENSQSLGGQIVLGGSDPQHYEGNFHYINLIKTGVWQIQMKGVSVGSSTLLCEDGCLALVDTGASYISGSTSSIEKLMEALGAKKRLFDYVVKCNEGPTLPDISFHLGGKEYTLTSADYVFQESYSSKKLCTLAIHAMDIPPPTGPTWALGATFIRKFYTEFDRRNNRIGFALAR
Experiment: plasma renin assay (inhibition of human renin; angiotensin I generated, measured by radioimmunoassay)
Assay type: biochemical
Settings: human plasma pool, pH 6.0, 2 h incubation at 37°
Method: The assay is performed as follows: The test compound (i.e. the inhibitor) is dissolved in dimethylsulfoxide (1 mM stock solution) and diluted with an aqueous buffer solution of 270 mM 2-(N-morpholino)ethanesulfonic acid and 1% human serum albumin (pH 5.85, also containing dimercaprol and 8-hydroxyquinoline sulfate in accordance with the instructions of the RIA kit noted below) to give an assay mixture in which the final dimethylsulfoxide content is 1% (v/v).
A human plasma pool is used as the source of both the substrate (angiotensinogen) and the enzyme (renin). The reaction is initiated by the addition of 50 μL of human plasma pool to 50 μL of various concentrations of inhibitor in the 1% dimethylsulfoxide assay buffer. The plasma renin activity is measured by the amount of angiotensin I generated at pH 6.0 following a 2 h incubation at 37°.
Quantitation of angiotensin I is performed by radioimmunoassay (RIA kit from New England Nuclear-Dupont, Mississauga, ON, Canada). The enzymatic activity of renin is expressed in ng of angiotensin I generated (/mL/2 h). The extent of inhibition of the reaction is determined from the amount of angiotensin I generated in reference to a control prepared without inhibitor. Nonlinear regression analysis is used to calculate the IC50 values, i.e. the molar concentration of the test compound required to cause a 50% inhibition of the enzyme activity.

Row | SMILES | IC50
1 | CCC[C@H](CC(=O)N(Cc1ccccc1)CC1(O)CCCCC1)C(=O)N[C@@H](CC1CCCCC1)[C@@H](O)[C@@H](O)CC(C)C [Compound 2, N^4-benzyl-N^4-[(1-hydroxycyclohexyl)methyl]-N^1-[1(S)-(cyclohexylmethyl)-2(R),3(S)-dihydroxy-5-methylhexyl]-2(R)-propylbutanediamide] | 27 nM
2 | CC(C)C[C@H](O)[C@H](O)[C@H](CC1CCCCC1)NC(=O)[C@@H](CC(=O)NCC1(O)CCCCC1)CC1CC1 [Compound 17, N^4-[(1-hydroxycyclohexyl)methyl]-N^1-[1(S)-(cyclohexylmethyl)-2(R),3(S)-dihydroxy-5-methylhexyl]-2(R)-(cyclopropylmethyl)butanediamide] | 94 nM
3 | CC(C)C[C@H](O)[C@H](O)[C@H](CC1CCCCC1)NC(=O)[C@@H](CC(=O)N(Cc1ncc[nH]1)CC1(O)CCCCC1)CC1CC1 [Compound 15, N^4-[(1-hydroxycyclohexyl)methyl]-N^4-(1H-imidazol-2-ylmethyl)-N^1-[1(S)-(cyclohexylmethyl)-2(R),3(S)-dihydroxy-5-methylhexyl]-2(R)-(cyclopropylmethyl)butanediamide] | 80 nM
4 | CC(C)C[C@H](O)[C@H](O)[C@H](CC1CCCCC1)NC(=O)[C@@H](CC(=O)N[C@H](CO)Cc1ccccc1)CC1CC1 [Compound 14, N^4-(S)-[1-(hydroxymethyl)-2-phenylethyl]-N^1-[1(S)-(cyclohexylmethyl)-2(R),3(S)-dihydroxy-5-methylhexyl]-2(R)-(cyclopropylmethyl)butanediamide] | 79 nM
5 | CC(C)C[C@H](O)[C@H](O)[C@H](CC1CCCCC1)NC(=O)[C@@H](CC(=O)N(Cc1ccccc1)CC1(O)CCCCC1)Cc1c[nH]cn1 [Compound 28] | 53 nM
6 | CC(C)C[C@H](O)[C@H](O)[C@H](CC1CCCCC1)NC(=O)[C@@H](CC(=O)N(C)CC1(O)CCCCC1)CC1CC1 [Compound 6, N^4-[(1-hydroxycyclohexyl)methyl]-N^4-methyl-N^1-[1(S)-(cyclohexylmethyl)-2(R),3(S)-dihydroxy-5-methylhexyl]-2(R)-(cyclopropylmethyl)butanediamide] | 38 nM
7 | CC(C)C[C@H](O)[C@H](O)[C@H](CC1CCCCC1)NC(=O)[C@@H](CC(=O)N(Cc1ccccc1)CC(C)(C)O)CC1CC1 [Compound 21, N^4-benzyl-N^4-(2-hydroxy-2-methylpropyl)-N^1-[1(S)-(cyclohexylmethyl)-2(R),3(S)-dihydroxy-5-methylhexyl]-2(R)-(cyclopropylmethyl)butanediamide] | 130 nM
8 | CC(C)C[C@H](O)[C@H](O)[C@H](CC1CCCCC1)NC(=O)[C@@H](CC(=O)N(Cc1ccccn1)CC1(O)CCCCC1)CC1CC1 [Compound 4, N^4-[(1-hydroxycyclohexyl)methyl]-N^4-(2-pyridinylmethyl)-N^1-[1(S)-(cyclohexylmethyl)-2(R),3(S)-dihydroxy-5-methylhexyl]-2(R)-(cyclopropylmethyl)butanediamide] | 36 nM
9 | CC(C)C[C@H](O)[C@H](O)[C@H](CC1CCCCC1)NC(=O)[C@@H](CC(=O)N(Cc1ccccn1)CC1(O)CCC(=O)CC1)CC1CC1 [Compound 19, N^4-[(1-hydroxy-4-oxocyclohexyl)methyl]-N^4-(2-pyridinylmethyl)-N^1-[1(S)-(cyclohexylmethyl)-2(R),3(S)-dihydroxy-5-methylhexyl]-2(R)-(cyclopropylmethyl)butanediamide] | 100 nM
10 | CC(C)C[C@H](O)[C@H](O)[C@H](CC1CCCCC1)NC(=O)[C@@H](CC(=O)N(Cc1ccccc1)CC(O)c1ccccc1)CC1CC1 (stereo partly drawn) [Compound 12, N^4-benzyl-N^4-(R,S)-(2-hydroxy-2-phenylethyl)-N^1-[1(S)-(cyclohexylmethyl)-2(R),3(S)-dihydroxy-5-methylhexyl]-2(R)-(cyclopropylmethyl)butanediamide] | 71 nM
11 | CC(C)C[C@H](O)[C@H](O)[C@H](CC1CCCCC1)NC(=O)[C@@H](CC(=O)N[C@@H](CO)Cc1ccccc1)CC1CC1 [Compound 13, N^4-(R)-[1-(hydroxymethyl)-2-phenylethyl]-N^1-[1(S)-(cyclohexylmethyl)-2(R),3(S)-dihydroxy-5-methylhexyl]-2(R)-(cyclopropylmethyl)butanediamide] | 89 nM

The next lines start with the values.

Row | IC50 | SMILES
12 | 11 nM | CC(C)C[C@H](O)[C@H](O)[C@H](CC1CCCCC1)NC(=O)[C@@H](CC(=O)N(Cc1ccc2c(c1)OCO2)CC1(O)CCCCC1)Cc1cscn1 [Compound 33, N^4-[(1-hydroxycyclohexyl)methyl]-N^4-[(3,4-methylenedioxyphenyl)methyl]-N^1-[1(S)-(cyclohexylmethyl)-2(R),3(S)-dihydroxy-5-methylhexyl]-2(R)-(4-thiazolylmethyl)butanediamide]
13 | 67 nM | CC(C)C[C@H](O)[C@H](O)[C@H](CC1CCCCC1)NC(=O)[C@@H](CC(=O)N(C)CC1(O)CCCCC1)Cc1c[nH]cn1 [Compound 35, N^4-[(1-hydroxycyclohexyl)methyl]-N^4-methyl-N^1-[1(S)-(cyclohexylmethyl)-2(R),3(S)-dihydroxy-5-methylhexyl]-2(R)-(1H-imidazol-4-ylmethyl)-butanediamide]
14 | 1.5 nM | CC(C)C[C@H](O)[C@H](O)[C@H](CC1CCCCC1)NC(=O)[C@@H](CC(=O)N(CC(=O)N(C)CCc1ccccn1)CC1(O)CCCCCC1)Cc1csc(N)n1 [Compound 59, N^4-[(1-hydroxycycloheptyl)methyl]-N^4 -{2-{methyl[2-(2-pyridinyl)ethyl]amino}-2-oxoethyl}-N^1-[1(S)-(cyclohexylmethyl)-2(R),3(S)-dihydroxy-5-methylhexyl]-2(R)-[(2-amino-4-thiazolyl)methyl]butanediamide]
15 | 11 nM | CC(C)C[C@H](O)[C@H](O)[C@H](CC1CCCCC1)NC(=O)[C@@H](CC(=O)N(CC(C)O)CC1CCCCC1)Cc1cscn1 (single isomer, unassigned) [Compound 40, N^4-(cyclohexylmethyl)-N^4-[2(S or R)-hydroxypropyl]-N^1-[1(S)-(cyclohexylmethyl)-2(R),3(S)-dihydroxy-5-methylhexyl]-2(R)-(4-thiazolylmethyl)butanediamide]
16 | 9 nM | CC(C)C[C@H](O)[C@H](O)[C@H](CC1CCCCC1)NC(=O)[C@@H](CC(=O)N(CC1CCCCC1)CC(C)(C)O)Cc1csc(N)n1 [Compound 41, N^4-(cyclohexylmethyl)-N^4-(2-hydroxy-2-methylpropyl)-N^1-[1(S)-(cyclohexylmethyl)-2(R),3(S)-dihydroxy-5-methylhexyl]-2(R)-[(2-amino-4-thiazolyl)methyl]butanediamide]
17 | 15 nM | CCC(CC)CN(CC(C)(C)O)C(=O)C[C@@H](Cc1csc(N)n1)C(=O)N[C@@H](CC1CCCCC1)[C@@H](O)[C@@H](O)CC(C)C [Compound 58, N^4-(2-ethylbutyl)-N^4-(2-hydroxy-2-methylpropyl)-N^1-[1(S)-(cyclohexylmethyl)-2(R),3(S)-dihydroxy-5-methylhexyl]-2(R)-[(2-amino-4-thiazolyl)methyl]butanediamide]
18 | 33 nM | CC(C)C[C@H](O)[C@H](O)[C@H](CC1CCCCC1)NC(=O)[C@@H](CC(=O)N(CC(=O)N(C)C)CC1(O)CCCCC1)Cc1cccnc1 [Compound 52, N^4-[(1-hydroxycyclohexyl)methyl]-N^4-[2-(dimethylamino)-2-oxoethyl]-N^1-[1(S)-(cyclohexylmethyl)-2(R),3(S)-dihydroxy-5-methylhexyl]-2(R)-(3-pyridinylmethyl)butanediamide]
19 | 8.7 nM | CC(C)C[C@H](O)[C@H](O)[C@H](CC1CCCCC1)NC(=O)[C@@H](CC(=O)N(CC(C)O)CC1CCCCC1)Cc1cscn1 (single isomer, unassigned) [Compound 39, N^4-(cyclohexylmethyl)-N^4-[2(R or S)-hydroxypropyl]-N^1-[1(S)-(cyclohexylmethyl)-2(R),3(S)-dihydroxy-5-methylhexyl]-2(R)-(4-thiazolylmethyl)butanediamide]
20 | 15 nM | CN(C)C(=O)CN(CC1(O)CCCCC1)C(=O)C[C@@H](CC1CC1)C(=O)N[C@@H](CC1CCCCC1)[C@@H](O)[C@@H]1CC(C)(C)N(C)C1=O [Compound 38, N^4-[(1-hydroxycyclohexyl)methyl]-N^4-[2-(dimethylamino)-2-oxoethyl]-N^1-[1(S)-(cyclohexylmethyl)-2(S)-hydroxy-2-(1,5,5-trimethyl-2-oxopyrrolidin-3(S)-yl)ethyl]-2(R)-(cyclopropylmethyl)butanediamide]
21 | 100 nM | CC(C)C[C@H](O)[C@H](O)[C@H](CC1CCCCC1)NC(=O)[C@@H](CC(=O)N(CCO)CC1CCCCC1)CC1CC1 [Compound 31, N^4-(cyclohexylmethyl)-N^4-(2-hydroxyethyl)-N^1-[1(S)-(cyclohexylmethyl)-2(R),3(S)-dihydroxy-5-methylhexyl]-2(R)-(cyclopropylmethyl)butanediamide]
